Laboratory results: US20250326714A1, “PURE FORMS OF CRYSTALLINE ATICAPRANT” (Janssen Pharmaceuticals, Inc., priority 2022, published 2025)

Columns and labels:
[1] = Solid-state characterization of Form III (GVS, TGA); format: physicochemical
[2] = ICH M7 class of impurity (DNA reactive / mutagenic impurities)
[3] = Body weight by treatment group, Example 5 study; format: in vivo, human
From the text: Treatment with the chemically and/or enantiomerically pure aticaprant described herein, e.g., chemically and/or enantiomerically pure crystalline Form III of aticaprant, or compositions containing the same as described herein has several advantages over the treatments in the art. […] As used herein, the term “weight gain” refers to an increase in the weight of patient, relative to the weight of the patient before taking the chemically and/or enantiomerically pure aticaprant described herein, e.g., chemically and/or enantiomerically pure crystalline Form III of aticaprant, or compositions containing the same or the weight of the patient that is assessed at the time of the initial administration of the chemically and/or enantiomerically pure aticaprant described herein, e.g., chemically and/or enantiomerically pure crystalline Form III of aticaprant, or compositions containing the same. In certain embodiments, the patient may actually see a decrease in overall weight, relative to the weight of the patient before taking the chemically and/or enantiomerically pure aticaprant described herein, e.g., chemically and/or enantiomerically pure crystalline Form III of aticaprant, or compositions containing the same.
At the lead-in baseline timepoint, the mean weight for subjects in the placebo group was 76.17 kg compared to 78.66 in the aticaprant group. After 6 weeks in the double-blind treatment phase, the mean weight in the placebo group was 75.75 kg compared to 78.57 kg in the aticaprant group. […] This is unexpected because other adjunctive treatments for MDD result in a mean weight increase. See, Thase M, et al. J Clin Psych. 2015: 76 (9), 1224-1231; Thase, J Clin Psych. 2015, 76 (9): 1232-1240; El Khalili, Int J Neuropsychopharmacol. 2010, 13, 917-932; Marcus, J. Clin. Psychopharmacol. […] Nashville, Tenn, ACNP, 2008; Earley, American College of Neuropsychopharmacology, 2007, Annual Meeting Abstracts (Boca Raton, Fla, Dec. 9-13, 2007). Nashville, TN, ACNP, 2007). See, Table 48.

Structure (SMILES): Cc1cc(C)cc([C@@H]2CCCN2Cc2ccc(Oc3ccc(C(N)=O)cc3F)cc2)c1 [Form III]
- TGA degradation onset [1]: Degradation onset ~250 °C
- XRPD after GVS [1]: XRPD unchanged after GVS

Structure (SMILES): Cc1cc(C)cc([C@@H]2CCCN2Cc2ccc(Oc3ccc(CN4CCC[C@H]4c4cc(C)cc(C)c4)cc3)cc2)c1 [Impurity 1]
- Impurity Class (ICH M7 Guideline) [2]: Class 5

Structure (SMILES): Cc1cc(C)cc(C2CCCN2Cc2ccc(Oc3ccc(C(N)=O)cc3F)cc2)c1 (stereo not drawn) [aticaprant, 3-fluoro-4-4-2-(3,5-dimethylphenyl) pyrrolidin-1-yl-methylphenoxybenzamide]
- weight over the 6-week double blind treatment period ([3]; both groups): remained relatively stable
- Mean weight, Absolute Change (Withdrawal − Lead-in) ([3]; n = 85): -0.09 kg
- Mean weight, Lead-in Baseline, mean (SE) ([3]; n = 85): 78.66 (1.65) kg
- Mean weight, Relative % Change ([3]; n = 85): −0.11%
- Mean weight, Screening, mean (SE) ([3]; n = 85): 78.42 (1.65) kg
- Mean weight, Withdrawal Baseline, mean (SE) ([3]; n = 85, after 6 weeks double-blind treatment): 78.57 (1.71) kg
